Activity data for 2 compounds are collected here from ChEMBL document CHEMBL1158448, “Synthesis and antinociceptive activity of pyrazolyl isoxazolines and pyrazolyl isoxazoles” (2009).

The subject of one test is Mus musculus. Description: Antinociceptive activity in Swiss albino mouse assessed as protection against acetic acid-induced abdominal constriction at 100 mg/kg, po measured for 10 mins after 5 mins of acetic acid challenge relative to control. It counts as functional, Abdomen.
Test [1] relates to Rattus norvegicus. Description: Antinociceptive activity in Wistar albino rat assessed as latency in reaction time required for thermal stimulus-induced tail flicking at 5 mg/kg, po after 180 mins by analgesiometric analysis (RVb=3.16 +/- 0.16 seconds). In kind it is functional.
Test [2] relates to Rattus norvegicus. Briefly: Antinociceptive activity in Wistar albino rat assessed as latency in reaction time required for thermal stimulus-induced tail flicking at 5 mg/kg, po after 120 mins by analgesiometric analysis (RVb=3.33 +/- 0.21 seconds). It counts as functional.
In test [3] the test system is Rattus norvegicus. Description: Antinociceptive activity in Wistar albino rat assessed as latency in reaction time required for thermal stimulus-induced tail flicking at 5 mg/kg, po after 30 mins by analgesiometric analysis (RVb=3.33 +/- 0.21 seconds). In kind it is functional.
Test [4] deals with Rattus norvegicus. Description: Antinociceptive activity in Wistar albino rat assessed as latency in reaction time required for thermal stimulus-induced tail flicking at 5 mg/kg, po after 60 mins by analgesiometric analysis (RVb=3.16 +/- 0.16 seconds). It counts as functional.

For the compound `CC(=O)Oc1ccccc1C(=O)O` [ASPIRIN], the Activity with Mus musculus is reported as 62.35%.

Consider `CC(C)=CCN1CC[C@]2(C)c3cc(O)ccc3C[C@H]1[C@H]2C` [(+)-PENTAZOCINE], for which the Activity came out at 8 s in the test with Rattus norvegicus [1], 9.3 s with Rattus norvegicus [2], 9.16 s in the test on Rattus norvegicus [3] and 9.33 s with Rattus norvegicus [4].
